Tests used:
[1] = tested on: GTPase activity in membranes isolated from a macrophage (RAW 264.7) cell line; assay: GTPase assay: basal or agonist-stimulated GTPase activity in macrophage membranes; type: biochemical; conditions: no LPS
From the text: (§1) We sought to directly evaluate the influence of LPS on possible G-protein function by examining agonist-enhanced GTPase activity, which is a hallmark of G-protein action. Moreover, because macrophages are one of the key cell types in the release of toxic mediators following an LPS challenge, we first assessed the capacity of LPS to influence GTPase activity in membranes isolated from RAW 264.7 cells, which is a highly LPS-responsive macrophage cell line. In these studies, GTPase activity was measured using a standard assay. The activity was determined using 2 µM γ-^32P-GTP in the presence of 0.1 mM ATP and 0.2 mM of the non-hydrolyzable ATP analog, AMPPNP, in order to minimize nonspecific nucleotidase activity in the membrane preparations. In the preferred practice of the present invention, the ability of a candidate compound to inhibit LPS-induced GTPase is assessed by measuring the release of ^32Pi from γ-^32P-GTP.
(§2) We first determined the optimal LPS concentration for GTPase stimulation. In all experiments, the LPS dose response curve was quite steep, and with the highest activity occurring around 200-300 µg LPS/ml.
(§3) Under these conditions, GTPase activation was evident at 100 µg LPS/ml (roughly 6 µM assuming an average MW ∼ 17,000 kDa), and the maximal effect was seen by 300 µg/ml LPS. (2) To show adenosine mucleotide synergism with LPS-stimulated GTPase activity, either 10µM ATP or 30µM ADP replace the 0.1 mM ATP and 0.2 mM AMPPNP of the standard assay described by Cassel et al. and Neer et al.
In the preferred assay, a candidate compound (.001 - 1000 µM) is dissolved or suspended in 100µl of a reaction buffer containing 20mM HEPES (pH 7.4), 0.01mM ATP or ADP, membranes isolated from RAW 264.7 cells, 2µM γ-^32P-GTP (3-9 X 10cpm/pmol), 5mM MgCl2, 18µM LPS (based on an estimated MW of 17,000 kDa for E. coli 0111:B4 endotoxin), and 250 mM ammonium sulfate. The reaction is initiated by the addition of the γ-^32P-GTP and the mixture incubated at 30-37°C for 15 to 30 minutes. The reaction is terminated by the addition of 500µl of 5% trichloroacetic acid and 500µl of 0.1gm/ml acid-activated charcoal in 5% trichloroacetic acid. The samples are centrifuged at 14,000xg for 10 minutes, and a 550µl aliquot of the supernatant is removed for scintillation counting. The supernatant will contain the released ^32Pi. The extent of GTPase inhibition is measured by the decrease in the amount of ^32Pi released from γ-^32P-GTP. Appropriate controls include mixtures with one of the following omitted: (i) test compound, (ii) endotoxin, and (iii) ATP, ADP or AMPPNP.
The macrophage-like cell line RAW 264.7 is cultured as described using RPMI 1640 medium supplemented with 10% fetal calf serum (FCS) containing < 0.1 ng/ml LPS. The membranes are resuspended in 20 mM HEPES (pH 7.4), 1 mM dithiothreitol, 1 mM EDTA and 10 µg leupeptin/ml. Aliquots are stored at -70°C until assayed.
(§4) To assess whether the LPS/ATP-enhanced GTPase is a "low Km" form, which would be expected for a variety of large and small MW G-proteins, as well as for various GAP and ARF-like proteins, as opposed to a "high Km" form, such as a phosphatase, we assayed the GTPase activity using 0.2 and 50 µM GTP essentially as described previously. […] The LPS and ATP stimulated a low Km GTPase activity by ∼30% and 70%, respectively, when added individually. This stimulation of low Km activity was slightly greater than that estimated using the standard assay conditions. […] The LPS stimulation of GTPase activity is enhanced by adenine nucleotides.

[2] = tested on: FCS-enhanced GTPase activity; assay: Inhibition of FCS-enhanced (non-LPS-stimulated) GTPase activity in macrophage membranes; type: biochemical; conditions: 3 mg/ml lipid X; 10% FCS
Procedure: With respect to non-LPS-stimulated GTPase activity in this macrophage system, we observed that 10% FCS (<0.1 ng endotoxin/ml serum by the Limulus amebocyte lysate method) induced a large degree of GTPase activation, whereas 3 mg/ml lipid X inhibited the FCS-enhanced GTPase activity by ∼ 50%.

sheep [3] = assay: Protection of sheep against the lethal effects of intravenous lipopolysaccharide; type: in vivo
Procedure: (§5) Mixed breed sheep weighing 30-70 kg were obtained from the University of Wisconsin Experimental Farms. Sheep were prepared as follows: at least 24 hours before each experiment, catheters were percutaneously placed in the pulmonary artery. Any other catheterizations that were required for infusion were done at this time. All studies were performed on awake, unrestrained sheep placed in portable stanchions with food and water ad libitum. Electronically calculated pulmonary artery pressures as well as heart rates were recorded at various intervals on a polygraph. To ensure a stable baseline prior to the injection of test compounds, approximately 1 hour of baseline measurements were recorded.
In view of the partial protection afforded by lipid X against LPS-induced lethality in mice, the possibility of such protection was also examined in sheep. The sheep system has the important advantage of permitting the administration of much larger doses of lipid X relative to LPS. It is the ratio of lipid X to endotoxin that is critical for survival. […] It is evident that a 5-10 fold excess of lipid X (on a weight basis) over LPS is required to ensure survival. (Because of the inherent LPS resistance of mice, their small body volume, and the limited solubility of lipid X in water, it is impossible to achieve 5-10 fold excess of lipid X relative to LPS in the mouse system.)

sheep [4] = assay: Toxicity of lipid X in sheep; type: in vivo; conditions: 40 sheep injected
Procedure: as §5
To test for the toxicity of lipid X in mice, C57BL/10 mice were challenged with 750, 2000 or 5000 µg of lipid X intraperitoneally (12 mice) or with 750, 1500 or 3000 µg intravenously (7 mice). […] Consequently, lipid X appeared to be nontoxic in mice, as in sheep.
About 30 sheep were examined by Burhop with regard to lipid X toxicity.

[5] = tested on: GTPase activity in membranes isolated from a macrophage (RAW 264.7) cell line; assay: GTPase assay, basal activity and single agonists; type: biochemical
From the text: as §1, §2, §3
Because the above inhibitor studies indicated a maximum LPS-stimulated GTPase activity in the presence of ATP and ATP analogs, we investigated this interaction by measuring the ATP-dependence of the GTPase activity in macrophage membranes in the presence and absence of an optimal dose of LPS. […] This stimulation by ATP may be due to the action of purinergic receptors, i.e., the adenosine and ATP receptors which are well-characterized to be coupled to various G-proteins.
as §4

sheep [6] = conditions: 40-1000 µg/kg; reported in the literature; cited from earlier work

SMILES: CCCCCCCCCCC[C@@H](O)CC(=O)N[C@H]1[C@@H](OP(=O)(O)O)O[C@H](CO)[C@@H](O)[C@@H]1OC(=O)C[C@H](O)CCCCCCCCCCC [lipid X]
- effect on basal GTPase activity [1]: slightly reducing basal activity
- inhibition of FCS-enhanced GTPase activity [2]: ~50%
- survival of subsequent LPS challenge (sheep [3]; 100-200 µg/kg of lipid X during the pretreatment period): survived
- Survivors (sheep [3]; Lipid X 50 µg/kg 1 hour prior to endotoxin, Lipopolysaccharide 20 µg/kg): 1/2
- Survivors (sheep [3]; Lipid X 100 µg/kg 15 min. prior to endotoxin, Lipopolysaccharide 10 µg/kg): 3/3
- Survivors (sheep [3]; Lipid X 100 µg/kg 1 hour prior to endotoxin, Lipopolysaccharide 20 µg/kg): 4/4
- Survivors (sheep [3]; Lipid X 200 µg/kg 1 hour prior to endotoxin, Lipopolysaccharide 20 µg/kg): 3/3
- excess of lipid X over LPS required to ensure survival (sheep [3]; in vivo): 5-10 fold excess (on a weight basis
- effect on pulmonary hypertension or fever induced by LPS (sheep [3]; pretreatment with lipid X): does not completely prevent
- effect on serious clinical symptoms (shortness of breath, weakness, diarrhea) (sheep [3]; pretreatment with lipid X): alleviates some of the serious clinical symptoms
- adverse complications of lipid X administration (sheep [4]): no serious adverse complications
- effect on basal GTPase activity [5]: slightly reducing
- illness after lipid X by itself (sheep [6]): does not create marked illness or fever
